Test results: US20070054841A1, “Method of treatment of systemic injury secondary to burns” (The University of Queensland, priority 2003, published 2007)
Entries after “also recorded” stand apart in the source; their conditions may differ.

Experiments:
[1] = test system: rats with full thickness skin burn; assay: Rat thermal skin burn (30%): bronchoalveolar lavage cell number and lung myeloperoxidase; format: in vivo, Female Wistar rats; conditions: 10 mg/kg SC pretreatment, 4 hours after burn injury, versus untreated burned animals
Protocol: A separate series of experiments was performed in the same way to determine myeloperoxidase (MPO) levels in the lung. In this experiment the groups were as follows: Immediately after the 4 hr monitoring period following the burn the lungs were flushed with 10 ml of saline via the pulmonary artery. Bronchoalveolar lavage (BAL) fluid was collected by an irrigation of 1 ml of saline at 37° C. into the lung once through the trachea and the total number of cells present in the lavage fluid was determined. Approximately 50% of the left lung was weighed, then homogenized in 1 ml solution of 0.05% sodium azide in 0.1M PBS (pH 6.4), and then sonicated and centrifuged. The MPO levels in the supernatants of lungs were determined using a tissue MPO assay, and the results were calculated as absorbance/tissue weight (g). Samples of affected skin, lung, liver and kidney were collected for histopathology.

[2] = in vivo
[3] = test system: T-cell dependent antigen responses; conditions: rat, in vivo, po, 100 mg/kg/day
[4] = test system: rats with full thickness skin burn; assay: Rat thermal skin burn (30% of skin area): Evans Blue leakage and macroscopic appearance of lung; format: in vivo, Female Wistar rats
Protocol: Female Wistar rats of body weight 250-300 grams were used in this study. The rats were divided into three groups: PMX53 treatment involved a subcutaneous injection of PMX53 in distilled water at a dose of 10 mg/kg 30 minutes before the burn. With the rats under deep anaesthesia, a closely-clipped area of skin on the back equivalent to 30% of total skin area was exposed to water at a temperature of 75° C. for 30 seconds. […] To prevent rapid death from the burn, rats were immediately treated with an intraperitoneal infusion of 8-10 ml normal saline. At the same time Evans Blue (EB) at a concentration of 20 mg/kg was injected via the femoral vein. The rats were then kept on a heating pad to maintain normal body temperature, and monitored for 4 hours. Anaesthetic was topped up as required. At the end of the experiment, 1-2 ml of blood was taken and the serum/plasma stored at −20° C., for subsequent assay of serum TNF-α levels. The leakage of EB/albumin from the blood vessels into the subcutaneous tissue was estimated by examining photographs of skin samples.

[5] = test system: granulocytes; conditions: cynomolgus monkey, in vivo, po, 100 mg/kg/day
[6] = Interaction with silver coated Acticoat dressing: silver ion leaching and surface by scanning electron microscopy; format: physicochemical
Protocol: (§1) Uniformly sized segments of the Acticoat dressing (10 mm diameter) were incubated in 7 ml PMX53 solution (1.0 mM in sterile water) or sterile water alone at 37° C. for periods of up to 7 days. The segments were then removed and examined using scanning electron microscopy to determine if the silver coating was affected.
A quantitative assessment of the effect of PMX53 on silver ion leaching was performed by determining the concentration of silver ions in each solution after the incubation described above for 1, 3, 5 and 7 days. Silver ion determination was performed using a Spectroflame model P ICPAES instrument.

[7] = PMX53 concentration remaining after incubation with Acticoat dressing (HPLC); format: physicochemical; conditions: throughout the experiment (up to 7 days, 37° C.)
Protocol: as §1
An analysis of the concentration of PMX53 remaining in the incubation solutions was performed by high performance liquid chromatography to ascertain if the concentration of PMX53 remained constant throughout the incubation period. PMX53 solution was incubated at 37° C. without a dressing to act as a control.

[8] = test system: rats with second degree burns; format: in vivo, Female Wistar rats; conditions: topical 400 μg/spot immediately after burn; 6 hours after burn
Protocol: The inhibitory effect of topically applied PMX53 on neutrophil infiltration following a burn was examined after a 6 hour period. In order to verify any effect of PMX53 on the immune system, immunoglobulin […] (IgG) levels were examined. IgM levels can be examined using similar methods. Female Wistar rats of body weight about 250 grams were used in this study. A total of nine rats were used in the experiments, divided into 3 groups of 3 animals each: Both sides of the anaesthetized rat body was shaved. […] Skin samples were collected for histopathology. The change in circulating IgG levels following the administration of PMX53 are illustrated in FIG. 7. IgG levels in plasma were measured using an ELISA assay. IgM levels may also may be determined using conventional ELISA techniques. There was no suppression of IgG over the 6 hr period after burns to 15% of the rat skin surface area (n=3). […] The 6 hr period may be too short for the systemic reaction to the burns to be detectable.

penetration through normal rat skin [2]: 0.16 %/cm^2 | systemic level of the drug after topical administration compared with other routes ([2]; rat): lower systemic level | T-cell dependent antigen responses [3]: did not attenuate or increase | phagocytosis or oxidative burst functions of granulocytes [5]: did not detectably impair | changes at the surface of Acticoat dressing segments (scanning electron microscopy) ([6]; 7 days incubation with PMX53, magnification of 2000): no apparent changes | factor of increase in leaching of silver ions from Acticoat dressing ([6]; PMX53 1 mM, after 1 day of incubation at 37° C.): 2.5 | concentration of PMX53 incubated with Acticoat dressing compared to control PMX53 solution [7]: did not change
SMILES: CC(=O)N[C@@H](Cc1ccccc1)C(=O)N[C@H]1CCCNC(=O)[C@H](CCCNC(=N)N)NC(=O)[C@H](Cc2c[nH]c3ccccc23)NC(=O)[C@@H](CC2CCCCC2)NC(=O)[C@@H]2CCCN2C1=O [PMX53, AcPhe[Orn-Pro-D-Cyclohexylalanine-Trp-Arg]]
total number of cells in bronchoalveolar lavage fluid [1]: cell numbers approaching those found in the sham-operated, unburned animals | total number of cells in bronchoalveolar lavage fluid ([1]; listed as PMX35): dramatically less | degree of EB infiltration in the subcutaneous tissues ([4]; 10 mg/kg SC 30 minutes before burn, 4 hours after burning, drug-treated versus untreated burned rats): no appreciable difference | leakage of Evans Blue (plasma) into burnt skin, blue staining and thickening ([4]; 10 mg/kg SC 30 minutes before burn, compared to burn-only group): less blue staining and less thickening; also recorded: markedly less plasma leakage into the skin | macroscopic appearance of the lung (EB staining, consolidation) ([4]; 10 mg/kg SC pretreatment, 4 hours after burn): colour and texture similar to those of the normal lungs; also recorded: appear normal | neutrophil recruitment in burned skin (histology) [8]: less neutrophil recruitment | structural damage of burned skin (histology) [8]: same structural damage as burned skin
